{"source": "patent US20080267861A1", "about": "“Myocardial Perfusion Imaging” (CV THERAPEUTICS, INC., priority 2007, published 2008)", "key": {"[1]": {"test_system": "patients requiring pharmacologic MPI", "test": "SPECT myocardial perfusion imaging: heart-to-background ratios, image quality, perfusion defects", "type": "in vivo, human", "settings": "for heart-to-gut ratio, mean (SD) / heart-to-liver ratio, mean (SD) / heart-to-liver+gut ratio, mean (SD): 39 patients undergoing both scans, 99mTc-Sestamibi", "procedure": "(§1) In this multicenter study, subjects requiring pharmacologic MPI based on clinical criteria received adenosine infusion (Astellas Pharma, Inc.), 140 mcg/kg/min over 6 min in the supine position (AdenoSup), following enrollment and were then randomized (2:1) in a double-blind manner to a novel protocol (RegEx) consisting of 4 min of sub-maximal exercise (1.7 mph at 0% grade) with bolus intravenous injection of 400 mcg Regadenoson at 1.5 min and ^99mTechnetium-Sestamibi at 2 min or matching placebos (PlcEx).\nPrior to randomization, patients were stratified based on the presence of reversible perfusion defects, defined as a two or more segments with a stress score >rest score and a stress score >2 on a 5-category scale, as interpreted by a board-certified nuclear cardiologist at each site. The 5-category scale, used both for stratifying patients and for evaluation of perfusion defects on study, was as follows: 0=normal; 1=mild reduction in tracer uptake, not definitely abnormal; 2=moderate reduction in uptake, definitely abnormal; 3=severe reduction in uptake; 4=absent uptake.\n(§2) The primary objective was to assess the overall safety of Regadenoson in patients undergoing low-level stress by comparing hemodynamic, cardiac rhythm and adverse effects of the 3 protocols. In addition, patient acceptance was determined by comparing patient comfort and test protocol preference using questionnaires. Three blinded expert readers independently interpreted randomly presented perfusion scans at a nuclear core lab (Services NucMed, Montreal, Canada). Image quality was compared between AdenoSup and RegEx by computation of heart-to-liver and heart-to-gut ratios and the readers' visual assessment of overall image quality and image quality with respect to subdiaphragmatic interference specifically. A 17-segment MPI model was used by the core lab readers, to compare the extent of the perfusion defect between RegEx and AdenoSup quantitatively and also qualitatively with side-by-side visual comparison. Patients were required to abstain from methylxanthine-containing foods and beverages for 12 hours prior to receiving study drug and adenosine. The protocol was approved by an institutional review board and all patients provided written informed consent.\nNuclear imaging was performed using either a dual isotope protocol or a two-day ^99mTechnetium-Sestainibi protocol at the investigators' discretion. However, men with body weight >220 pounds and body mass index >30 kg/m2 and women with body weight >200 pounds and body mass index >30 kg/m2 were to undergo the two day protocol. The single photon emission computed tomography (SPECT) imaging was standardized for image acquisition and transmittal in accordance with the American Society of Nuclear Cardiology guidelines. The protocol required an extra ˜8 mSv radiation to the patients in the study arm, and none to the patients in the control (placebo exercise) arm.\nThe dual isotope protocol was performed over 2 separate days. On the first day, patients were to have a rest scan with ^201Thallium followed by a ^99mTechnetium-Sestamibi adenosine-supine MPI; on a subsequent day, patients underwent a ^99mTechnetium-Sestamibi study drug (i.e., regadenoson or placebo) sub-maximal treadmill exercise MPI.\nThe multi-day ^99mTechnetium-Sestamibi was performed over 3 days. On the first day, patients were to have a ^99mTechnetium-Sestamibi adenosine supine MPI or ^99mTechnetium-Sestamibi rest scan. […] The second and third days were not necessarily consecutive to the first day.\nThe stress MPI scans were to be performed 60±10 minutes after the start of adenosine or study drug.\nChanges in blood pressure, heart rate, and ECG intervals were computed over time and compared (Regadenoson vs. placebo) using repeated measures, mixed-model ANOVA. The incidence of symptomatic hypotension, systolic blood pressure decreases of >20 mm Hg, ECG abnormalities, and severe or related adverse events was compared using Fisher's exact test. […]"}, "[2]": {"test_system": "patients requiring pharmacologic MPI", "test": "Adverse events during MPI protocols", "type": "in vivo, human", "settings": "for frequency of dyspnea: 39 crossover patients", "procedure": "as §1, §2\n(§3) Changes in blood pressure, heart rate, and ECG intervals were computed over time and compared (Regadenoson vs. placebo) using repeated measures, mixed-model ANOVA. The incidence of symptomatic hypotension, systolic blood pressure decreases of >20 mm Hg, ECG abnormalities, and severe or related adverse events was compared using Fisher's exact test. The quality of nuclear MPI scans following regadenoson and low-level exercise was compared to adenosine-supine MPI scans of the same subject using the sign test. Radiotracer target-to-background ratios were computed and compared between the two imaging regimens using the Wilcoxon signed ranks test. Semi-quantitative scoring of perfusion defects (Summed Stress Score (SSS), Summed Difference Score (SDS), etc.) was conducted using a 17-segment polar map and the quality of agreement between the two imaging regimens was assessed using […]"}, "[3]": {"test_system": "patients requiring pharmacologic MPI", "test": "Hemodynamic, cardiac rhythm and ECG effects of MPI protocols", "type": "in vivo, human", "settings": "for effects on ECG intervals: AdenoSup, RegEx and PlcEx compared; for patients with arrhythmias following both AdenoSup and RegEx / patients with arrhythmias following this protocol only: adverse events or ECG findings; for occurrences of 2nd degree or higher AV block: in vivo", "procedure": "as §1, §2, §3"}, "[4]": {"settings": "relative to adenosine; cited from earlier work"}, "[5]": {"test_system": "patients requiring pharmacologic MPI", "test": "Patient comfort and test protocol preference questionnaires", "type": "in vivo, human", "settings": "for tolerability: 400 mcg bolus during low-level exercise", "procedure": "as §2\nCohen's kappa for the categories 0-3, 4-7, 8-11, and >12 (SSS) and 0-6, 7-13, and >14 (SDS). The number of segments with reversible perfusion defects was defined as the median number across the three readers. Subject comfort and tolerability were assessed using a 4-point scale and the regimens compared using a Cochran-Mantel-Haenszel test of equality of mean scores. Data are expressed as mean (SD) unless otherwise specified. Statistical analyses were conducted using SAS version 9.1. Statistical significance was defined as a p-value of <0.05."}, "[6]": {"settings": "AdenoSup, later randomized to RegEx (n = 39)"}}, "data": [{"smiles": "Nc1ncnc2c1ncn2[C@@H]1O[C@H](CO)[C@@H](O)[C@H]1O", "note": "[Adenosine, adenosine, reference compound]", "values": [{"measurement": "heart-to-gut ratio, mean (SD)", "setting": "[1]", "result": "0.97 (0.34)"}, {"measurement": "heart-to-liver ratio, mean (SD)", "setting": "[1]", "result": "0.65 (0.26)"}, {"measurement": "heart-to-liver+gut ratio, mean (SD)", "setting": "[1]", "result": "0.72 (0.18)"}, {"measurement": "patients in whom reversible perfusion defects were detected", "setting": "[1]; of 39 patients", "result": 51.3, "unit": "%"}, {"measurement": "patients in whom reversible perfusion defects were detected", "setting": "[1]; out of 39 patients", "result": 20}, {"measurement": "frequency of dyspnea", "setting": "[2]", "result": 41, "unit": "%"}, {"measurement": "patients with at least one adverse event", "setting": "[2]; 62 patients dosed", "result": 95, "unit": "%"}, {"measurement": "Adverse event: Stomach Discomfort, patients", "setting": "[2]; AdenoSup, later randomized to PlcEx (n = 21)", "result": 0}, {"measurement": "Adverse event: Dizziness, patients", "setting": "[2]; [6]", "result": 0}, {"measurement": "Adverse event: Pain in Jaw, patients", "setting": "[2]; [6]", "result": 0}, {"measurement": "patients with severe adverse events", "setting": "[2]; AdenoSup: of 60 patients", "result": 4}, {"measurement": "patients with protocol-defined symptomatic hypotension", "setting": "[2]; in vivo", "result": "One"}, {"measurement": "patients with severe adverse events", "setting": "[2]; of 60 patients", "result": 6.7, "unit": "%"}, {"measurement": "effects on ECG intervals", "setting": "[3]", "result": "similar"}, {"measurement": "patients with arrhythmias following both AdenoSup and RegEx", "setting": "[3]", "result": 2}, {"measurement": "patients with arrhythmias following this protocol only", "setting": "[3]", "result": 3}, {"measurement": "occurrences of 2nd degree or higher AV block", "setting": "[3]", "result": "one"}, {"measurement": "peak heart rate, increase from resting baseline", "setting": "[3]; mean (SE)", "result": "+21.0 (SE 2.5) bpm"}]}, {"smiles": "OCCN(CCO)c1nc(N2CCCCC2)c2nc(N(CCO)CCO)nc(N3CCCCC3)c2n1", "note": "[dipyridamole]", "values": [{"measurement": "half-life", "setting": "[4]", "result": "longer than that of adenosine"}]}, {"smiles": "CNC(=O)c1cnn(-c2nc(N)c3ncn([C@@H]4O[C@H](CO)[C@@H](O)[C@H]4O)c3n2)c1", "note": "[Regadenoson, (1-{9-[(4S,2R,3R,5R)-3,4-dihydroxy-5-(hydroxymethyl)oxolan-2-yl]-6-aminopurin-2-yl}pyrazol-4-yl)-N-methylcarboxamide]", "values": [{"measurement": "heart-to-gut ratio, mean (SD)", "setting": "[1]", "result": "1.1 (0.36)"}, {"measurement": "heart-to-liver ratio, mean (SD)", "setting": "[1]", "result": "0.85 (0.34)"}, {"measurement": "heart-to-liver+gut ratio, mean (SD)", "setting": "[1]", "result": "0.93 (0.26)"}, {"measurement": "image quality with respect to subdiaphragmatic interference, side-by-side RegEx vs AdenoSup", "setting": "[1]; 39 patients, blinded readers", "result": "significantly better"}, {"measurement": "overall image quality, side-by-side comparison RegEx vs AdenoSup", "setting": "[1]; 39 patients, blinded readers, listed as RegEx", "result": "significantly better overall image quality"}, {"measurement": "patients in whom reversible perfusion defects were detected", "setting": "[1]; of 39 patients", "result": 64.1, "unit": "%"}, {"measurement": "patients in whom reversible perfusion defects were detected", "setting": "[1]; out of 39 patients", "result": 25}, {"measurement": "frequency of dyspnea", "setting": "[2]", "result": 54, "unit": "%"}, {"measurement": "patients with severe adverse events", "setting": "[2]; AdenoSup: of 60 patients", "result": "no patient"}, {"measurement": "Adverse event: Chest Pain, patients", "setting": "[2]; RegEx (n = 39)", "result": 0}, {"measurement": "Adverse event: Pain in Jaw, patients", "setting": "[2]; RegEx (n = 39)", "result": 0}, {"measurement": "Adverse event: Throat tightness, patients", "setting": "[2]; RegEx (n = 39)", "result": 0}, {"measurement": "patients with at least one adverse event", "setting": "[2]; n=39", "result": 77, "unit": "%"}, {"measurement": "patients reporting being very uncomfortable or extremely uncomfortable", "setting": "[5]; 4-point scale", "result": "No patients"}, {"measurement": "patients reporting the test as \"a little uncomfortable\"", "setting": "[5]; 4-point scale", "result": 41, "unit": "%"}, {"measurement": "patients reporting the test as \"comfortable\"", "setting": "[5]; 4-point scale", "result": 59, "unit": "%"}, {"measurement": "tolerability", "setting": "[5]", "result": "feasible and well tolerated"}, {"measurement": "tolerability", "setting": "[5]; listed as RegEx", "result": "well tolerated"}, {"measurement": "heart rate over the pre-exercise baseline", "setting": "[3]; 24 minutes following start of exercise, mean (SE)", "result": "+4.6 (SE 1.5) bpm"}, {"measurement": "effects on ECG intervals", "setting": "[3]", "result": "similar"}, {"measurement": "peak heart rate greater than following AdenoSup", "setting": "[3]; RegEx vs AdenoSup", "result": 21, "unit": "bpm"}, {"measurement": "peak heart rate greater than following PlcEx", "setting": "[3]; RegEx vs PlcEx", "result": 13, "unit": "bpm"}, {"measurement": "systolic blood pressure analyses (change in mean SBP, nadir SBP, decline >20 mm Hg)", "setting": "[3]; RegEx vs PlcEx and vs AdenoSup", "result": "no important differences"}, {"measurement": "patients with arrhythmias following both AdenoSup and RegEx", "setting": "[3]", "result": 2}, {"measurement": "patients with arrhythmias following this protocol only", "setting": "[3]", "result": 1}, {"measurement": "heart rate higher than the pre-exercise baseline", "setting": "[3]; by 24 minutes following the study drug bolus", "result": "< 5", "unit": "bpm"}, {"measurement": "occurrences of 2nd degree or higher AV block", "setting": "[3]", "result": "No occurrences"}, {"measurement": "peak heart rate, increase from resting baseline", "setting": "[3]; mean (SE)", "result": "41.9 (SE 2.7) bpm"}, {"measurement": "increase of mean maximum heart rate over sub-maximal exercise with placebo", "setting": "[3]; with sub-maximal exercise", "result": 16.5, "unit": "beats per minute"}, {"measurement": "mean maximum heart rate increase", "setting": "[3]; with sub-maximal exercise (Discussion)", "result": "+40.2 (1.5) bpm"}]}]}
